Among the data in patent US10214546B2, “Btk inhibitors” (MERCK SHARP & DOHME CORP., priority 2014, dated 2019) are IC50 values, retold here.

Assay [1] has as its target BTK enzyme (recombinant full-length BTK, hBTK) (Homo sapiens (Human), UniProt Q06187). The experiment in a line: BTK enzymatic activity LANCE TR-FRET assay. Particulars: 50 pM hBTK, 25 μM ATP, 2 μM biotin-A5-peptide; compound range 1 μM to 0.017 nM; read-out: BTK binding IC50. It counts as biochemical.
The subject of assay [2] is adenosine uptake into HeLa cells. The assay is described as follows: [3H]Adenosine uptake assay in HeLa cells. Particulars: compound range 10 μM to 0.032 nM. It counts as cell-based. Put shortly:
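HeLa cells in HBSS + 5% FBS were preincubated 30 min at ambient temperature with compound (ten-point 1:3 series, 10 µM–[…] final), then given [3H]adenosine (added as a 500 nM solution) for 60 min. Cell-associated label was read by scintillating-plate proximity counting; IC50 from 4-parameter fit of cps versus log concentration.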

The mark [3] stands for this setting: Homo sapiens, HeLa, [3H]adenosine accumulation in HeLa cells, read-out: ADU inhibition IC50.
Where [4] appears, read: [3H]adenosine accumulation in HeLa cells, read-out: ADU inhibition IC50.

Like-named read-outs stand apart in the source and are kept apart here.

Chain of BTK enzyme (recombinant full-length BTK, hBTK) (Q06187 whole entry): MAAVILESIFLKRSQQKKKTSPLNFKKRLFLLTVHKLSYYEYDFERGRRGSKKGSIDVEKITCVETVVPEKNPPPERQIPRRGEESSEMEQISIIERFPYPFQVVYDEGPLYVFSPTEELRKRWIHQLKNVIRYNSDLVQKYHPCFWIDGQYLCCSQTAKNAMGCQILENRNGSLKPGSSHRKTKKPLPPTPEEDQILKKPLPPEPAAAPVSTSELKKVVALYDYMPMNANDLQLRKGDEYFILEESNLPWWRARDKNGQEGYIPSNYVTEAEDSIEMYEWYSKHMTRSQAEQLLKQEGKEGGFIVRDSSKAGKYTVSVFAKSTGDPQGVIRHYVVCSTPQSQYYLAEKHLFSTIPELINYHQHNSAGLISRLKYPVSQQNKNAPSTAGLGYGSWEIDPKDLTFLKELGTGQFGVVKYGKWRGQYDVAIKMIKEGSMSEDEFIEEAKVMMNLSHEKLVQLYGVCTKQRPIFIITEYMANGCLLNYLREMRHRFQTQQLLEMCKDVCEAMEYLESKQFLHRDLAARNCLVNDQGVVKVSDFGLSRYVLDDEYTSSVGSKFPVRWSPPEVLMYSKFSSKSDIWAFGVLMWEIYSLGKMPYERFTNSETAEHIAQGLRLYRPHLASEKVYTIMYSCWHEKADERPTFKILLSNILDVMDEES

On to `C[C@](O)(c1ccc(-c2nc([C@@H]3CC[C@H]4CCC(=O)N4C3)n3ccnc(N)c23)cc1)c1cccc(C#N)c1` [Example 84, 3-[(1S)-1-(4-{8-amino-3-[(6R,8aS)-3-oxooctahydroindolizin-6-yl]imidazo[1,5-a]pyrazin-1-yl}phenyl)-1-hydroxyethyl]benzonitrile], for which the IC50 (commonly the concentration needed to halve the response being measured) in assay [1] stood at 1000 nM; in assay [2] (setting [3]), 2380 nM.

For the compound `C[C@@](O)(c1ccc(-c2nc([C@@H]3CC[C@H]4CCC(=O)N4C3)n3ccnc(N)c23)cc1)c1cccc(C#N)c1` [Example 85, 3-[(1R)-1-(4-{8-amino-3-[(6R,8aS)-3-oxooctahydroindolizin-6-yl]imidazo[1,5-a]pyrazin-1-yl}phenyl)-1-hydroxyethyl]benzonitrile], the IC50 in assay [1] was determined as 23.4 nM; in assay [2] (setting [3]), 3530 nM.

As for `Nc1nccn2c([C@@H]3CC[C@H]4CCC(=O)N4C3)nc(-c3ccc(C(O)(c4cccc(C(F)(F)F)c4)C4CC4)cc3)c12` (stereo partly drawn) [Example 86, (6R,8aS)-6-[8-amino-1-(4-{cyclopropyl(hydroxy)[3-(trifluoromethyl)phenyl]methyl}phenyl)imidazo [1,5-a]pyrazin-3-yl]hexahydroindolizin-3(2H)-one], the IC50 in assay [1] is 1000 nM; in assay [2] (setting [4]), 589 nM.

Consider `Nc1nccn2c([C@@H]3CC[C@H]4CCC(=O)N4C3)nc(-c3ccc(C(O)(c4cccc(C(F)(F)F)c4)C4CC4)cc3)c12` (stereo partly drawn) [Example 87, (6R,8aS)-6-[8-amino-1-(4-{cyclopropyl(hydroxy)[3-(trifluoromethyl)phenyl]methyl}phenyl)imidazo [1,5-a]pyrazin-3-yl]hexahydroindolizin-3(2H)-one], for which the IC50 was 123 nM in assay [1] and 1580 nM in assay [2] (setting [4]).

With `CC(O)(c1cccc(C(F)(F)F)c1)c1ccc(-c2nc([C@@H]3CC[C@H]4CCC(=O)N4C3)n3ccnc(N)c23)c(C2CC2)c1` (stereo partly drawn) [Example 88, (6R,8aS)-6-[8-amino-1-(2-cyclopropyl-4-{1-hydroxy-1-[3-(trifluoromethyl)phenyl]ethyl}phenyl)imidazo [1,5-a]pyrazin-3-yl]hexahydroindolizin-3(2H)-one], the IC50 in assay [1] amounted to 576 nM; in assay [2] (setting [3]) it was 1100 nM.

As to `CO[C@](C)(c1ccc(-c2nc([C@@H]3CC[C@H]4CCC(=O)N4C3)n3ccnc(N)c23)cc1)c1cccc(C(F)(F)F)c1` [Example 89, (6R,8aS)-6-[8-amino-1-(4-{(1R)-1-methoxy-1-[3-(trifluoromethyl)phenyl]ethyl}phenyl)imidazo [1,5-a]pyrazin-3-yl]hexahydroindolizin-3(2H)-one], the IC50 in assay [1] worked out at 1000 nM; in assay [2] (setting [3]), 3490 nM.

As to `CO[C@@](C)(c1ccc(-c2nc([C@@H]3CC[C@H]4CCC(=O)N4C3)n3ccnc(N)c23)cc1)c1cccc(C(F)(F)F)c1` [Example 90, (6R,8aS)-6-[8-amino-1-(4-{(1S)-1-methoxy-1-[3-(trifluoromethyl)phenyl]ethyl}phenyl)imidazo [1,5-a]pyrazin-3-yl]hexahydroindolizin-3(2H)-one], the IC50 turned out to be 1000 nM in assay [1] and 969 nM in assay [2] (setting [3]).

On to `CCc1cccc([C@@](C)(O)c2ccc(-c3nc([C@@H]4CC[C@H]5CCC(=O)N5C4)n4ccnc(N)c34)cc2)c1` [Example 92, (6R,8aS)-6-(8-amino-1-{4-[(1S)-1-(3-ethylphenyl)-1-hydroxyethyl]phenyl}imidazo[1,5-a]pyrazin-3-yl)hexahydroindolizin-3(2H)-one], for which the IC50 was 0.48 nM in assay [1] and 619 nM in assay [2] (setting [3]).

Take `CCc1cccc([C@](C)(O)c2ccc(-c3nc([C@@H]4CC[C@H]5CCC(=O)N5C4)n4ccnc(N)c34)cc2)c1` [Example 93, (6R,8aS)-6-(8-amino-1-(4-[(1R)-1-(3-ethylphenyl)-1-hydroxyethyl]phenyl}imidazo[1,5-a]pyrazin-3-yl)hexahydroindolizin-3(2H)-one]: the concentration for half-maximal inhibition (IC50) in assay [1] was 0.15 nM; in assay [2] (setting [3]) it was 1380 nM.

`C[C@](O)(c1ccc(-c2nc([C@@H]3CC[C@H]4CCC(=O)N4C3)n3ccnc(N)c23)cc1)c1cccc(OC2CC2)c1` [Example 94, (6R,8aS)-6-[8-amino-1-(4-{(1S)-1-[3-(cyclopropyloxy)phenyl]-1-hydroxyethyl}phenyl)imidazo[1,5-a]pyrazin-3-yl]hexahydroindolizin-3(2H)-one]: the IC50 in assay [1] is 201 nM; in assay [2] (setting [3]) it was 800 nM.

Turning to `C[C@@](O)(c1ccc(-c2nc([C@@H]3CC[C@H]4CCC(=O)N4C3)n3ccnc(N)c23)cc1)c1cccc(OC2CC2)c1` [Example 95, (6R,8aS)-6-[8-amino-1-(4-{(1R)-1-[3-(cyclopropyloxy)phenyl]-1-hydroxyethyl}phenyl)imidazo[1,5-a]pyrazin-3-yl]hexahydroindolizin-3(2H)-one], the values for the IC50 in assay [1] and in assay [2] (setting [3]) were 1.8 nM and 1980 nM, respectively.

For the compound `NC(=O)C(O)(c1ccc(-c2nc([C@@H]3CC[C@H]4CCC(=O)N4C3)n3ccnc(N)c23)cc1)c1cccc(C(F)(F)F)c1` (stereo partly drawn) [Example 96, 2-(4-{8-amino-3-[(6R,8aS)-3-oxooctahydroindolizin-6-yl]imidazo[1,5-a]pyrazin-1-yl}phenyl)-2-hydroxy-2-[3-(trifluoromethyl)phenyl] acetamide], the IC50 is 576 nM in assay [1] and 7140 nM in assay [2] (Homo sapiens, HeLa, read-out: ADU inhibition IC50 (nM), [3H]adenosine accumulation in HeLa cells).

Turning to `NC(=O)C(O)(c1ccc(-c2nc([C@@H]3CC[C@H]4CCC(=O)N4C3)n3ccnc(N)c23)cc1)c1cccc(C(F)(F)F)c1` (stereo partly drawn) [Example 97, 2-(4-{8-amino-3-[(6R,8aS)-3-oxooctahydroindolizin-6-yl]imidazo[1,5-a]pyrazin-1-yl}phenyl)-2-hydroxy-2-[3-(trifluoromethyl)phenyl] acetamide], the IC50 amounted to 894 nM in assay [1] and 10000 nM in assay [2] (read-out: ADU inhibition IC50, [3H]adenosine accumulation in HeLa cells).

Take `COc1cc(-c2nc([C@@H]3CC[C@H]4CCC(=O)N4C3)n3ccnc(N)c23)ccc1[C@](C)(O)c1cccc(C2CC2)c1` [Example 98, (6R,8aS)-6-(8-amino-1-{4-[(1R)-1-(3-cyclopropylphenyl)-1-hydroxyethyl]-3-methoxyphenyl}imidazo [1,5-a]pyrazin-3-yl)hexahydroindolizin-3(2H)-one]: the IC50 in assay [1] came to 0.28 nM; in assay [2] (setting [3]) it was 3170 nM.

For the compound `COc1cc(-c2nc([C@@H]3CC[C@H]4CCC(=O)N4C3)n3ccnc(N)c23)ccc1[C@@](C)(O)c1cccc(C2CC2)c1` [Example 99, (6R,8aS)-6-(8-amino-1-{4-[(1S)-1-(3-cyclopropylphenyl)-1-hydroxyethyl]-3-methoxyphenyl}imidazo [1,5-a]pyrazin-3-yl)hexahydroindolizin-3(2H)-one], the IC50 in assay [1] was 10.1 nM; in assay [2] (setting [3]), 1190 nM.

In the case of `CC(O)(c1cccc(C(F)(F)F)c1)c1ccc(-c2nc([C@@H]3CC[C@H]4CCC(=O)N4C3)n3ccnc(N)c23)c(Cl)c1` (stereo partly drawn) [Example 100, (6R,8aS)-6-[8-amino-1-(2-chloro-4-{1-hydroxy-1-[3-(trifluoromethyl)phenyl]ethyl}phenyl)imidazo [1,5-a]pyrazin-3-yl]hexahydroindolizin-3(2H)-one], the IC50 in assay [1] was 17.4 nM; in assay [2] (setting [3]), 311 nM.

On to `C[C@](O)(c1cccc(C(F)(F)F)c1)c1ccc(-c2nc([C@@H]3CC[C@H]4CCC(=O)N4C3)n3ccnc(N)c23)c(F)c1` [Example 101, (6R,8aS)-6-[8-amino-1-(2-fluoro-4-{(1S)-1-hydroxy-1-[3-(trifluoromethyl)phenyl]ethyl}phenyl)imidazo [1,5-a]pyrazin-3-yl]hexahydroindolizin-3(2H)-one], for which the results for the IC50 in assay [1] and in assay [2] (setting [3]) were 774 nM and 371 nM, respectively.

Consider `C[C@@](O)(c1cccc(C(F)(F)F)c1)c1ccc(-c2nc([C@@H]3CC[C@H]4CCC(=O)N4C3)n3ccnc(N)c23)c(F)c1` [Example 102, (6R,8aS)-6-[8-amino-1-(2-fluoro-4-{(1R)-1-hydroxy-1-[3-(trifluoromethyl)phenyl]ethyl}phenyl)imidazo [1,5-a]pyrazin-3-yl]hexahydroindolizin-3(2H)-one], for which the values for the IC50 in assay [1] and in assay [2] (setting [3]) were 1.6 nM and 1680 nM, respectively.

Take `Cc1cc([C@@](C)(O)c2cccc(C(F)(F)F)c2)ccc1-c1nc([C@@H]2CC[C@H]3CCC(=O)N3C2)n2ccnc(N)c12` [Example 103, (6R,8aS)-6-[8-amino-1-(4-{(1R)-1-hydroxy-1-[3-(trifluoromethyl)phenyl]-ethyl}-2-methylphenyl)imidazo [1,5-a]pyrazin-3-yl]hexahydroindolizin-3(2H)-one]: the IC50 in assay [1] worked out at 1000 nM; in assay [2] (setting [3]), 487 nM.

Consider `Cc1cc([C@](C)(O)c2cccc(C(F)(F)F)c2)ccc1-c1nc([C@@H]2CC[C@H]3CCC(=O)N3C2)n2ccnc(N)c12` [Example 104, (6R,8aS)-6-[8-amino-1-(4-{(1S)-1-hydroxy-1-[3-(trifluoromethyl)phenyl]ethyl}-2-methylphenyl)imidazo [1,5-a]pyrazin-3-yl]hexahydroindolizin-3(2H)-one], for which the IC50 in assay [1] came to 10.7 nM; in assay [2] (setting [3]), 1700 nM.

In the case of `CC(O)(c1cccc(C(F)(F)F)c1)c1ccc(-c2nc([C@@H]3CC[C@H]4CCC(=O)N4C3)n3ccnc(N)c23)c(C(F)(F)F)c1` (stereo partly drawn) [Example 105, (6R,8aS)-6-{8-amino-1-[4-{1-hydroxy-1-[3-(trifluoromethyl)phenyl]ethyl}-2-(trifluoromethyl)phenyl]imidazo[1,5-a]pyrazin-3-yl}hexahydroindolizin-3(2H)-one], the IC50 in assay [1] was determined as 1000 nM; in assay [2] (setting [3]), 861 nM.
